Here are results for one compound from US20200397763A1, “PARENTERAL FORMULATION MATERIALS AND METHODS FOR 40-O-CYCLIC HYDROCARBON ESTERS AND RELATED STRUCTURES” (Biotronik AG, priority 2018, published 2020).

The conditions of data set [1]: prior art; blood plasma; 15 mg/kg; SEQ ID NO:1 with nanoparticles; cited from earlier work.
Data set [2] is described as follows: Rat intravenous PK of the EtOH / SEQ ID NO:1 formulation without nanoparticles. Format: in vivo, Sprague-Dawley rats. Conditions: for AUC(0-inf): Sprague-Dawley, rat, rats, intravenous 15 mg/kg, EtOH / 20% SEQ ID NO:1 in saline, without nanoparticles, LCMS. The procedure: It is understood the concentration may be optimized according to desired dosing schemes, routes of administration, etc.
The PK studies were conducted around the formulation from Example I. Specifically, Sprague-Dawley rats were dosed intravenously at 15 mg/kg, with blood samples being collected prior to dosing, in order to establish baseline, then post dosing at set intervals up to 24 hours. Drug bioanalytical measurements were conducted by LCMS.
Results (AUCinf) reported in the prior art are from blood plasma, whereas the present results are from both plasma and whole blood. This was done to allow for direct comparison to the previous studies. Drug area under the curve versus time ((AUCinf), total drug dose exposure) was calculated accordingly.
Sirolimus (rapamycin) was used and formulated in accordance with those steps described previously at Example I. Specifically, sirolimus was combined with SEQ ID NO:1 but without nanoparticles and tested against the studies shown in the prior art, namely, sirolimus formulated with SEQ ID NO:1 but with nanoparticles.

One may read the AUC(0-inf) as total exposure, with the tail of the curve extrapolated. Read a high AUC(0-inf) as high exposure. In the case of `CO[C@H]1C[C@@H]2CC[C@@H](C)[C@@](O)(O2)C(=O)C(=O)N2CCCC[C@H]2C(=O)O[C@H]([C@H](C)C[C@@H]2CC[C@@H](O)[C@H](OC)C2)CC(=O)[C@H](C)/C=C(\C)[C@@H](O)[C@@H](OC)C(=O)[C@H](C)C[C@H](C)/C=C/C=C/C=C/1C` [Sirolimus, rapamycin], in data set [1], the AUCinf is 6017 ± 647 ng·h/mL. The area under the curve AUC(0-inf) was 5180 ± 130 ng·h/mL in data set [2] (plasma) and 5060 ± 541 ng·h/mL in data set [2] (whole blood). Moreover, the “difference between the AUCinf results of the current studies and the prior art” value in data set [2] (sirolimus without nanoparticles (current) versus with nanoparticles (prior art)) is given as 20%.
